Test results from US4481201A, “Pharmaceutical composition containing N,N^3 -di-(β-bromopropionyl)-N^1,N^2 -dispirotripiperazinium dichloride” (Vsesojuzny Nauchno-Issledovatelsky Khimoko-Farmasevtichesky …, priority 1981, dated 1984).

Experiments:
[1] = Toxicity on single and repeated administration to mice; assay type: in vivo
Method: (3) acute toxicity of the compounds upon a single and repeated administration to white noninbred mice places into standard cages with 8 animals in each.
In the investigation of toxic properties of the compounds according to the present invention there has been determined the absolutely lethal dose (DL95), average lethal dose (DL50) and MTD. For compounds 1 and 2 there were determined DL95 and DL50 on healthy white mice with the body mass of 18-21 g at a single and repeated (once a day, daily for 7 days) intraperitoneal administration.

sarcoma 37 = assay: Growth of graft sarcoma 37 in mice; assay type: in vivo, noninbred white mice; settings: mice, at MTD (dose not given)
Excerpt: (§1) The antitumor activity has been studied on white rats weighing 110-130 g, as well as on white noninbred and inbred mice weighing 17-21 g with ligated tumors. The treatment is started 5-7 days transplanting of solid tumors and the following day after the transplanting of leukotic strains. Use has been made of the following transplantable strains of the tumors:
(§2) (2) noninbred white mice: sarcoma 180, sarcoma AK, sarcoma 37, carcinoma HK;
(§3) The compounds of the general formula (I), wherein X represents Cl^- (compound 1), Br^- (compound 2) are well-soluble in an isotonic solution of sodium chloride and they are administered intraperitoneally. The doses of the compounds have been calculated in mg per kg of the animal bodyweight.

sarcoma AK = assay: Growth of graft sarcoma AK in mice; assay type: in vivo, noninbred white mice; settings: mice, at MTD (dose not given)
Excerpt: as §1, §2, §3

Ienssen's sarcoma = assay: Growth of graft Ienssen sarcoma in rats; assay type: in vivo
Excerpt: as §1
(§4) (1) rats: Ienssen's sarcoma, sarcoma 45, sarcoma M-1, sarcoma 536;
as §3

sarcoma M-1 = assay: Growth of graft sarcoma M-1 in rats; assay type: in vivo
Excerpt: as §1, §4, §3

transplantable leukemia = assay: Activity relative to leukoses of inbred mice (overall); assay type: in vivo
Excerpt: (2) activity of the compounds relative to leukoses of inbred mice;
as §1
(§5) (3) inbred mice: leukemia La, leukemia L1210 and P-388.
(§6) The activity of compounds relative to leukosis has been assessed by the life span (It) of treated animals as compared to the control ones. It --index of suppression of leukosis development is calculated by the formula: [formula]

sarcoma 536 = assay: Growth of graft sarcoma 536 in rats; assay type: in vivo
Excerpt: as §1, §4, §3

Solubility = assay type: physicochemical
Method: as §3
To a mixture of 3 g of N^1,N^2 -dispirotripiperazinium dichloride, 1.5 g of lithium hydroxide, 1 ml of water and 10 ml of ether a solution of 5.2 g of β-bromopropionic acid chlorid in 5 ml of ether is added under vigorous stirring and at a temperature of 5° to 10° C. The reaction mass is stirred for 2 hours at the temperature of 15° C. The residue is filtered off, dissolved in 10 ml of water; the resulting aqueous solution is poured in 100 ml of methanol.

sarcoma 180 = assay: Growth of graft sarcoma 180 in mice; assay type: in vivo, noninbred white mice; settings: mice, at MTD (dose not given)
Excerpt: as §1, §2, §3

leukemia La = assay: Life span of mice with transplantable leukemia La; assay type: in vivo, inbred mice; settings: leukemia La, MTD
Excerpt: as §1, §5, §6

sarcoma 45 = assay: Growth of graft sarcoma 45 in rats; assay type: in vivo; settings: for Change in the animal body weight, test / It, % tumor growth suppression index: rats
Excerpt: as §1, §4, §3

[2] = mice, single intraperitoneal administration
[3] = rats, 21 mg/kg intraperitoneally, 44 injections
[4] = rats, 39 mg/kg intraperitoneally, 5 injections
[5] = rats, 86 mg/kg intraperitoneally, 4 injections
[6] = rats, 88 mg/kg intraperitoneally, 5 injections
[7] = rats, 2,1 mg/kg intraperitoneally, 7 injections
[8] = rats, 4,2 mg/kg intraperitoneally, 7 injections
[9] = rats, 81 mg/kg intraperitoneally, 6 injections
[10] = 44 mg/kg intraperitoneally, 7 injections
[11] = 83 mg/kg intraperitoneally, 7 injections

With `O=C(CCBr)N1CC[N+]2(CC1)CC[N+]1(CCN(C(=O)CCBr)CC1)CC2` [Compound 2] the “DL50 (average lethal dose)” value ([1]; mice, repeated intraperitoneal administration (once a day, daily for 7 days)) was 150 mg/kg, the “DL50 (average lethal dose)” value [1, 2] was 1,150 mg/kg and the “DL95 (absolutely lethal dose)” value [1, 2] was 1,250 mg/kg. The MTD ([1]; repeated intraperitoneal administration) was 125 mg/kg, the “suppression of sarcoma 37” value (sarcoma 37) was 60% and the “suppression of sarcoma AK” value (sarcoma AK) was 81%. For the same molecule, the “Ch/T chemotherapeutical index (ratio of MTD to minimum effective dose)” value (Ienssen's sarcoma; Ienssen sarcoma) was 50, the “Maximum tolerable dose (MTD)” value (Ienssen's sarcoma; rats with Ienssen sarcoma, repeated intraperitoneal administration) was 149 mg/kg and the “Change in the animal body weight, test” value (Ienssen's sarcoma; rats, 8 mg/kg intraperitoneally, 7 injections) was “+21 g”. For the same molecule, the “Change in the animal body weight, test” value (Ienssen's sarcoma; [3]) was “+34 g”, the “It, % tumor growth suppression index” value (Ienssen's sarcoma; [3]) was “+90%” and the “Change in the animal body weight, test” value (Ienssen's sarcoma; [4]) was “+14 g”. For the same molecule, the “It, % tumor growth suppression index” value (Ienssen's sarcoma; [4]) was “+99%”, the “Change in the animal body weight, test” value (Ienssen's sarcoma; [5]) was “+1 g” and the “It, % tumor growth suppression index” value (Ienssen's sarcoma; [5]) was “+99%”. For the same molecule, the “Change in the animal body weight, test” value (Ienssen's sarcoma; [6]) was “+1 g”, the “It, % tumor growth suppression index” value (Ienssen's sarcoma; [6]) was “+99%” and the “Change in the animal body weight, test” value (Ienssen's sarcoma; rats, 149 mg/kg intraperitoneally (MTD), 5 injections) was -30 g. The “Change in the animal body weight, test” value (Ienssen's sarcoma; [7]) was “+5 g”, the “It, % tumor growth suppression index” value (Ienssen's sarcoma; [7]) was “+46%” and the “Change in the animal body weight, test” value (Ienssen's sarcoma; [8]) was “+6 g”. The “It, % tumor growth suppression index” value (Ienssen's sarcoma; [8]) was “+35%”, the “Maximum tolerable dose (MTD)” value (sarcoma M-1; rats with sarcoma M-1, repeated intraperitoneal administration) was 95 mg/kg and the “Change in the animal body weight, test” value (sarcoma M-1; rats, 95 mg/kg intraperitoneally (MTD), 6 injections) was “+8 g”. The “effect on transplantable leukemia in mice” value (transplantable leukemia) was “clearly pronounced antileukotic effect”, the “Maximum tolerable dose (MTD)” value (sarcoma 536; rats with sarcoma 536, repeated intraperitoneal administration) was 133 mg/kg and the “Change in the animal body weight, test” value (sarcoma 536; [9]) was -15 g. For the same molecule, the “It, % tumor growth suppression index” value (sarcoma 536; [9]) was “+52%”, the “Change in the animal body weight, test” value (sarcoma 536; rats, 133 mg/kg intraperitoneally (MTD), 5 injections) was -14 g and the “solubility in an isotonic solution of sodium chloride” value (Solubility) was “well-soluble”. The “suppression of sarcoma 180” value (sarcoma 180) was 52%, the “extension of life span of treated mice as compared to the control” value (leukemia La) was 2 times and the “Maximum tolerable dose (MTD)” value (sarcoma 45; rats with sarcoma 45, repeated intraperitoneal administration) was 95 mg/kg. For the same molecule, the “Change in the animal body weight, test” value (sarcoma 45; 20 mg/kg intraperitoneally, 7 injections) was -12 g, the “It, % tumor growth suppression index” value (sarcoma 45; 20 mg/kg intraperitoneally, 7 injections, 20 mg/kg) was “+66%” and the “Change in the animal body weight, test” value (sarcoma 45; [10]) was “+4 g”. For the same molecule, the “It, % tumor growth suppression index” value (sarcoma 45; [10]) was “+96%”, the “Change in the animal body weight, test” value (sarcoma 45; [11]) was “+6 g” and the “It, % tumor growth suppression index” value (sarcoma 45; [11]) was “+96%”. For the same molecule, the “Change in the animal body weight, test” value (sarcoma 45; 95 mg/kg intraperitoneally (MTD), 6 injections) was -6 g.
